Reference: US20120190707A1, “SELECTIVE INHIBITORS OF AKT AND METHODS OF USING SAME” (priority 2008, published 2012)

How the values were obtained:
[1] = mouse, in vivo
[2] = system: AKT transcripts; experiment: QPCR analysis of AKT transcripts in melanoma cells; assay type: cell-based; conditions: data not shown
Excerpt: Given the effect of BI-69A11 on the level of AKT protein, we assessed the possible mechanisms underlying such an effect. First, we assessed whether BI-69A11 affects the level of AKT transcripts. RNA prepared from the melanoma cells, with and without treatment with BI-69A11, was subjected to QPCR analysis.

[3] = target: p38.alpha (Homo sapiens, UniProt Q16539); experiment: Activity of other protein kinases: p38.alpha; assay type: biochemical; conditions: 100 micro.M
[4] = system: PRAS40; experiment: IGF-1 induced PRAS40 phosphorylation by western analysis in 29-1 cells; assay type: cell-based, human; conditions: IGF-1 (20 ng/mL), 10.micro.M
Method: FIG. 6 describes the effect of BI-69A11 on phosphorylation and total levels of AKT in UACC 903 (PTEN−) cells. (A) UACC903 and the modified clone 29-1 (PTEN+) cells were exposed to 10 micro.M BI-69A11 and 50 micro.M LY294002 (a PI3K inhibitor) and the levels of pAKT473 and total AKT determined by western analysis. […] (SF=Serum Free). (B) BI-69A11 inhibits PRAS40 phosphorylation. UACC903 melanoma cells or 29-1 cells (PTEN+) were subjected to treatment with IGF-1 (20 ng/mL) and the level of PRAS40 phosphorylation was assessed. […] The cells were collected, lysed and levels of pPRAS40 and total PRAS40 determined by western analysis. (C) AKT association with HSP90 is inhibited by BI-69A11. Human melanoma cells were treated with BI-69A11 (10.micro.M) or DMSO control for 4 h, followed by protein preparation and immunoprecipitation using antibodies to pan-AKT. MG132 treatment, when used, initiated 1 h prior to treatment and lasted up to the preparation of proteins (total of 5 h). The right panel depicts analysis of total lysates.
We next tested the effect of BI-69A11 in 29-1 cells which are derivative of UAC903 that were reconstituted with chromosome 10 carrying the wt PTEN. Thus, 29-1 cells no longer express a constitutively active form of AKT (Robertson et al., 1998). To activate AKT, 29-1 cells were treated with IGF-1 (FIG. 6B). […]

[5] = target: Akt1 (Homo sapiens, UniProt P31749); experiment: Akt1 inhibition assay using GSK-3 as a substrate (immuno-blotting with anti-phospho-GSK-3α/β); assay type: biochemical
Method: Here the top 4000 compounds out of 50000 docked compounds were selected using FlexX and Drugscore (BioSolvIT). The top 4000 docked structures were further evaluated and ranked according to Goldscore and Chemscore functions (CSCORE). A list of common 200 compounds was then selected among ranked top 700 compounds according to both scoring functions (FIG. 1B). […] The remaining 100 compounds were experimentally tested up to 30 μM against Akt1. The inhibitory activity was evaluated for the selected compounds by using Z'-LYTE™ kit assay provided by Invitrogen Corporation (19). […] Corning® 384-well low volume plates (20 μl) were used. The fluorescent-enzymatic assay has been performed following the protocol provided by Invitrogen Corporation, using a fluorescent plate reader (Victor2, Perkin-Elmer). […] C) Lineweaver-Burk Km and Km(app) evaluation for Akt1. Each measurement was performed in triplicate. […] The Ki and the Km(app) were calculated at fixed inhibitor concentrations, as reported in the text. All constant values were definitely evaluated by fitting the data to the Lineweaver-Burk plot; D) Akt1 inhibition assay using GSK-3 as a substrate. Comparison of compounds 1 and 2 (Table 1) with H89 at 10 μM. E) Dose response for compound 1. […]

[6] = target: Abl1 (Homo sapiens, UniProt P00519); experiment: Non related protein kinase Abl1 inhibition; assay type: biochemical; conditions: concentrations up to 100 μM
Excerpt: In addition, we tested our compounds against a non related protein kinase, Abl1 (22), which is a tyrosine kinase under investigation in our laboratory.
We recently reported on the direct evaluation of a number of in silico approaches to identify AKT inhibitors (Forino et al., 2005) We achieved experimental validation of selected compounds using both a fluorescence-based enzymatic assay and a substrate phosphorylation assay involving the protein GSK-3 (Forino et al., 2005). Briefly, the virtual docking approach consists of selecting the top 4,000 out of 50,000 docked compounds, using a variety of computational docking approaches, including a consensus score among two different scoring functions (Forino et al., 2005). Of those, 100 compounds were selected based on ranking and favorable docking geometry.

Chain of Akt1 (P31749 whole entry): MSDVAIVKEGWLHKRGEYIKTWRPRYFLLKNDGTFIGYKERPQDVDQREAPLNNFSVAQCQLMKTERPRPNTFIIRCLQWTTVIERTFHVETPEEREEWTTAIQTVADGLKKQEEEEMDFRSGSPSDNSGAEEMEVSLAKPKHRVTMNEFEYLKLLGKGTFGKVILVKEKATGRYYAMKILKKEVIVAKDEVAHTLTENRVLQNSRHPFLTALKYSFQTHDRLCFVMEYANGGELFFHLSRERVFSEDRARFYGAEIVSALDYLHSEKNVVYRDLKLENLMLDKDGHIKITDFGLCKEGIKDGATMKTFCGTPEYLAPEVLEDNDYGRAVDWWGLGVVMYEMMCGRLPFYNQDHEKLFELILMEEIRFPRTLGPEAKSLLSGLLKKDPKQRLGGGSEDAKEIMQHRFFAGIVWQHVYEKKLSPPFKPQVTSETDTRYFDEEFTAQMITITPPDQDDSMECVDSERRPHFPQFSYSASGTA
Chain of Abl1 (P00519 whole entry, species assumed): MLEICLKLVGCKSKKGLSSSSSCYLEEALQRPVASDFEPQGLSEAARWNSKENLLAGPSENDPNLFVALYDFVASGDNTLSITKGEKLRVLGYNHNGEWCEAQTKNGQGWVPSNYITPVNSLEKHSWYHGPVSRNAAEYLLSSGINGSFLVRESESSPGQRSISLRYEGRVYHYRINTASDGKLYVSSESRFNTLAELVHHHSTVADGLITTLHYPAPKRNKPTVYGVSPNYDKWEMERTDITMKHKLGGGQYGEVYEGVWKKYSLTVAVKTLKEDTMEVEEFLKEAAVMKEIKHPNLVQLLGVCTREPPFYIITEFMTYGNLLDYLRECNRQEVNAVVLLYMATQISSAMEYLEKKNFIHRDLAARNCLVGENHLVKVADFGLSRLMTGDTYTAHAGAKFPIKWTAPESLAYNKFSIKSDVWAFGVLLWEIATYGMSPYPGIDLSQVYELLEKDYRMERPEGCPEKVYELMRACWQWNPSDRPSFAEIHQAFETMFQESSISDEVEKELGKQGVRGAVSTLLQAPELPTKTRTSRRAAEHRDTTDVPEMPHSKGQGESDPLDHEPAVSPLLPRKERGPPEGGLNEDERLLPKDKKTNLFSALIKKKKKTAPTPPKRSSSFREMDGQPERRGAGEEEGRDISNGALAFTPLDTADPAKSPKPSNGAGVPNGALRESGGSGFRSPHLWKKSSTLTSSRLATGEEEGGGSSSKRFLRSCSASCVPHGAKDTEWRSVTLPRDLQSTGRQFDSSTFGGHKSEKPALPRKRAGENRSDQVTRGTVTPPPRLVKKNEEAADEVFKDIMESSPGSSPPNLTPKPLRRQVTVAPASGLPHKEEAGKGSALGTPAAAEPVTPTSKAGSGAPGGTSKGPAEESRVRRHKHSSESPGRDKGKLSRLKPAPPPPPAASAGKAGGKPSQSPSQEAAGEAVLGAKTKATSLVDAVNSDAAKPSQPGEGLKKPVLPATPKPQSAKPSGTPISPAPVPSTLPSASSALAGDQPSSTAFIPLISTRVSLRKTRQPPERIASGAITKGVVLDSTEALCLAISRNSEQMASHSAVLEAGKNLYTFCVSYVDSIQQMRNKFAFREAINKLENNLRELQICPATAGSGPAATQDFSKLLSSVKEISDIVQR
Chain of p38.alpha (Q16539 whole entry): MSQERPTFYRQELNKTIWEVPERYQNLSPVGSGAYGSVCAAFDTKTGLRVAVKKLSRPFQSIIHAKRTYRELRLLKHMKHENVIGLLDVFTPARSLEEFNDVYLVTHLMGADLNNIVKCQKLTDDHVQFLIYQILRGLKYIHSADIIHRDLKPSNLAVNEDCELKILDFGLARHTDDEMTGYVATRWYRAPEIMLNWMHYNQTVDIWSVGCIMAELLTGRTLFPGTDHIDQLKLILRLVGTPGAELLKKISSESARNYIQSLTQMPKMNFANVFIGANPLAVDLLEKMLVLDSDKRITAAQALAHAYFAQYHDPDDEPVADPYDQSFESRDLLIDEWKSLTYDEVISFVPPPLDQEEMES

O=C(/C=C/c1nc2ccccc2[nH]1)c1c(O)nc2ccc(Cl)cc2c1-c1ccccc1 [Compound 2, (E)-3-(3-(1H-benzo[d]imidazol-2-yl)acryloyl)-6-chloro-4-phenylquinolin-2(1H)-one]
cytokines in the blood, treated vs. control [1]: induction of TNFalpha
toxicity by blood work [1]: lack of toxicity
level of AKT transcripts [2]: did not identify differences
effect on p38.alpha activity [3]: did not affect
phosphorylation of PRAS40 [4]: effectively inhibited
inhibition of GSK-3 phosphorylation [5]: low micromolar range
inhibition of Abl1 [6]: did not affect
